Measurements reported in US6271234A, “1,4-disubstituted piperazines” (Recordati S.A., Chemical and Pharmaceutical Company, priority 1997, dated 2001).

How the values were obtained:
[1] = test system: rhythmic bladder voiding contractions; test: Effects on volume-induced rhythmic bladder voiding contractions in anaesthetized rats; type: in vivo, Female Sprague Dawley rats; conditions: for Bladder Quiescence (disappearance time of contractions): mean ± S.E.
Experimental: The animals were housed with free access to food and water and were maintained on a forced 12 h alternating light-dark cycle at 22-24° C. for at least one week, except during the experiment. […] The catheter was tied in place with a ligature around the external urethral orifice and was connected with conventional pressure transducers (Statham P23 ID/P23 XL). […] The bladder was then filled via the recording catheter by incremental volumes of warm (37° C.) saline until reflex bladder voiding contractions occurred (usually 0.8-1.5 ml).
After cessation of the effect of drug injection, the height of the peaks was compared with that previously recorded after the intravenous administration of vehicle alone.

[2] = molecular target: T1, human 5-HT1A -serotoninergic receptor (Homo sapiens, UniProt P08908); test: Radioreceptor binding to recombinant 5-HT1A receptors ([3H]8-OH-DPAT, HeLa cell membranes); conditions: [3H]8-OH-DPAT 0.2-1 nM, 30 min at 30° C., read-out: Binding affinity for the 5-HT1A receptor, Ki
T1 construct: expressed in transfected cells; host or cells: HeLa (human cell line), stably transfected; cell membranes
T1 sequence (P08908 1-422): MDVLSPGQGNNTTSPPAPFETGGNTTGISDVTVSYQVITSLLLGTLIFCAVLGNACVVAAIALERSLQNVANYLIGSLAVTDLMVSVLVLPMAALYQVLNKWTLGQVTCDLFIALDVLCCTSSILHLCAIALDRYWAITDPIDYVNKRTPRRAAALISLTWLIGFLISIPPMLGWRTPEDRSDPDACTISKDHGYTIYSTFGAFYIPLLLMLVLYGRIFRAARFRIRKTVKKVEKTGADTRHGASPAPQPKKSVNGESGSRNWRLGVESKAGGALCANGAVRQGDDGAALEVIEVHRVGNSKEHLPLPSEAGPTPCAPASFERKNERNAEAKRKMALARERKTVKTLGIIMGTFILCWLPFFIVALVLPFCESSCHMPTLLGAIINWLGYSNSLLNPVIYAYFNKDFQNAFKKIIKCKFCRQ
Experimental: HeLa cells were grown as monolayers in Dulbecco's modified Eagle's medium (DMEM), supplemented with 10% fetal calf serum and gentamicin ([…]), 5% CO2 at 37° C. Cells were detached from the growth flash at 95% confluence by a cell scraper and were lysed in ice-cold 5 mM Tris and 5 mM EDTA buffer (pH 7.4). Homogenates were centrifuged at 40000×g×20 min and pellets were resuspended in a small volume of ice-cold 5 mM Tris 5 and 5 mM EDTA buffer (pH 7.4) and immediately frozen and stored at -70° C. until use. On the day of experiment, cell membranes were resuspended in binding buffer: 50 mM Tris HCl (pH 7.4), 2.5 mM MgCl2, […] (Fargin et al., Nature 335, 358-360, 1988). Membranes were incubated in a final volume of 1 ml for 30 min at 30° C. with 0.2-1 nM [^3 H]8-OH-DPAT, in absence or presence of competing drugs; non-specific binding was determined in the presence of […]. The incubation was stopped by addition of ice-cold Tris-HCl buffer and rapid filtration through 0.2% polyethyleneimine pretreated Whatman GF/B or Schleicher & Schuell GF52 filters.

[3] = test system: rhythmic bladder voiding contractions; conditions: urethane-anesthetized rats; background statement; cited from earlier work
[4] = i.v., urethane-anesthetized rats

## O=C(C1CCCCC1)N(CCN1CCN(c2ccccc2OC(F)(F)F)CC1)c1ccccn1 [Ex. 1, 1-[N-cyclohexylcarbonyl-N-(2-pyridyl)-2-aminoethyl]-4-(2-trifluoromethoxyphenyl)piperazine]
[1]; 100 μg/kg i.v.
  Bladder Quiescence (disappearance time of contractions): 5.85 ± 1.87 min
[1]; 1000 μg/kg i.v.
  Bladder Quiescence (disappearance time of contractions): 16.25 ± 1.38 min
[1]; 3000 μg/kg i.v.
  Bladder Quiescence (disappearance time of contractions): 18.40 ± 4.12 min
[2]
  Ki: 0.86 nM

## O=C(C1CCCCC1)N(CCN1CCN(c2cc(Cl)ccc2Cl)CC1)c1ccccn1 [Ex. 10, 1-[N-cyclohexylcarbonyl-N-(2-pyridyl)-2-aminoethyl]-4-(2,5-dichlorophenyl)piperazine]
[2]
  Ki: 0.45 nM

## O=C(C1CCCCC1)N(CCN1CCN(c2ccccc2OCC(F)(F)F)CC1)c1ccccn1 [Ex. 2, 1-[N-cyclohexylcarbonyl-N-(2-pyridyl)-2-aminoethyl]-4-[2-(2,2,2-trifluoroethoxy)phenyl]piperazine]
[1]; 30 μg/kg i.v.
  Bladder Quiescence (disappearance time of contractions): 3.00 ± 0.91 min
[1]; 100 μg/kg i.v.
  Bladder Quiescence (disappearance time of contractions): 8.70 ± 2.88 min
[1]; 1000 μg/kg i.v.
  Bladder Quiescence (disappearance time of contractions): 27.28 ± 8.70 min
[2]
  Ki: 0.89 nM

## O=C(C1CCCCC1)N(CCN1CCN(c2cc(Cl)ccc2OCC(F)(F)F)CC1)c1ccccn1 [Ex. 3, 1-[N-cyclohexylcarbonyl-N-(2-pyridyl)-2-aminoethyl]-4-[5-chloro-2-(2,2,2-trifluoroethoxy)phenyl]piperazine]
[1]; 10 μg/kg i.v.
  Bladder Quiescence (disappearance time of contractions): 3.15 ± 1.74 min
[1]; 100 μg/kg i.v.
  Bladder Quiescence (disappearance time of contractions): 6.15 ± 1.19 min
[1]; 1000 μg/kg i.v.
  Bladder Quiescence (disappearance time of contractions): 10.13 ± 0.59 min
[1]; 3000 μg/kg i.v.
  Bladder Quiescence (disappearance time of contractions): 14.42 ± 2.36 min
[2]
  Ki: 1.51 nM

## N#Cc1ccccc1N1CCN(CCN(C(=O)C2CCCCC2)c2ccccn2)CC1 [Ex. 4, 1-[N-cyclohexylcarbonyl-N-(2-pyridyl)-2-aminoethyl]-4-(2-cyanophenyl) piperazine]
[2]
  Ki: 0.31 nM

## COc1cc(NS(C)(=O)=O)ccc1N1CCN(CCN(C(=O)C2CCCCC2)c2ccccn2)CC1 [Ex. 8, 1-[N-cyclohexylcarbonyl-N-(2-pyridyl)-2-aminoethyl]-4-(4-methanesulfonylamino-2-methoxyphenyl)piperazine]
[1]; 100 μg/kg i.v.
  Bladder Quiescence (disappearance time of contractions): 2.03 ± 0.44 min
[1]; 1000 μg/kg i.v.
  Bladder Quiescence (disappearance time of contractions): 7.20 ± 1.07 min
[1]; 3000 μg/kg i.v.
  Bladder Quiescence (disappearance time of contractions): 14.20 ± 2.57 min

## O=C(C1CCCCC1)N(CCN1CCN(Cc2cc(Cl)ccc2Cl)CC1)c1ccccn1 [Ex. 14, 1-[N-cyclohexylcarbonyl-N-(2-pyridyl)-2-aminoethyl]-4-(2,5-dichlorobenzyl)piperazine]
[1]; 30 μg/kg i.v.
  Bladder Quiescence (disappearance time of contractions): 2.80 ± 1.31 min
[1]; 100 μg/kg i.v.
  Bladder Quiescence (disappearance time of contractions): 10.12 ± 1.98 min
[1]; 300 μg/kg i.v.
  Bladder Quiescence (disappearance time of contractions): 21.52 ± 4.66 min
[2]
  Ki: 0.12 nM

## CCN(CC)CC#CCOC(=O)C(O)(c1ccccc1)C1CCCCC1 (centres unmarked) [Oxybutynin, reference compound]
[1]; 100 μg/kg i.v.
  Bladder Quiescence (disappearance time of contractions): 0.92 ± 0.15 min
[1]; 300 μg/kg i.v.
  Bladder Quiescence (disappearance time of contractions): 2.87 ± 1.12 min
[1]; 1000 μg/kg i.v.
  Bladder Quiescence (disappearance time of contractions): 2.80 ± 0.60 min
[1]; 3000 μg/kg i.v.
  Bladder Quiescence (disappearance time of contractions): 6.27 ± 2.90 min
[1]; Rattus norvegicus, iv, read-out: ED50 value (extrapolated dose inducing a 30% reduction of amplitude of the contractions in 50% of treated rats)
  ED50: 240 mg/kg
[1]; [4]
  Duration of bladder quiescence / cessation of bladder contractions (in words): does not cause cessation of bladder contractions
  Effect on amplitude of bladder contractions (in words): only decreased the amplitude of the contractions in a dose-related manner
[3]
  Effect on bladder voiding contractions in this model system (background, in words): lower the amplitude of the bladder contractions

## COc1cc(N)ccc1N1CCN(CCN(C(=O)C2CCCCC2)c2ccccn2)CC1 [Ex. 6, 1-[N-cyclohexylcarbonyl-N-(2-pyridyl)-2-aminoethyl]-4-(4-amino-2-methoxyphenyl)piperazine]
[1]; 10 μg/kg i.v.
  Bladder Quiescence (disappearance time of contractions): 6.75 ± 1.66 min
[1]; 100 μg/kg i.v.
  Bladder Quiescence (disappearance time of contractions): 9.82 ± 1.18 min
[1]; 1000 μg/kg i.v.
  Bladder Quiescence (disappearance time of contractions): 15.00 ± 3.11 min
[2]
  Ki: 14.3 nM

## COc1cc(NC(C)=O)ccc1N1CCN(CCN(C(=O)C2CCCCC2)c2ccccn2)CC1 [Ex. 7, 1-[N-cyclohexylcarbonyl-N-(2-pyridyl)-2-aminoethyl]-4-(4-acetylamino-2-methoxyphenyl)piperazine]
[1]; 100 μg/kg i.v.
  Bladder Quiescence (disappearance time of contractions): 7.97 ± 1.78 min
[1]; 300 μg/kg i.v.
  Bladder Quiescence (disappearance time of contractions): 8.65 ± 1.81 min
[1]; 1000 μg/kg i.v.
  Bladder Quiescence (disappearance time of contractions): 20.63 ± 3.31 min
[2]
  Ki: 8.15 nM

## Cc1c(-c2ccccc2)oc2c(C(=O)OCCN3CCCCC3)cccc2c1=O [Flavoxate, reference compound]
[1]; 1000 μg/kg i.v.
  Bladder Quiescence (disappearance time of contractions): 3.04 ± 0.96 min
[1]; 3000 μg/kg i.v.
  Bladder Quiescence (disappearance time of contractions): 5.30 ± 1.00 min
[1]; 10000 μg/kg i.v.
  Bladder Quiescence (disappearance time of contractions): 8.25 ± 1.90 min
